Measurements taken from US10899756B2, “Phosphodiesterase inhibitors and uses thereof” (The Trustees of Columbia University in the City of New York, priority 2013, dated 2021).
Like-named read-outs stand apart in the source and are kept apart here.

Columns and labels:
[1] = Pharmacokinetic study, brain and plasma; format: in vivo, C57B16 mice; details: 25 mg/kg i.p., mice; for half-life: read-out: t½ (elimination half-life) (converted)
[2] = Acute toxicity study with histology; format: in vivo; details: 120 or 240 mg/kg, i.p.
Excerpt: Brain, muscle, kidney, and liver were harvested from each mouse, and tissue from each organ was examined histologically by a board-certified pathologist for signs of toxicity.

[3] = system: APP/PS1 mice; assay: Contextual fear conditioning (fear memory); format: in vivo
Procedure: Fear conditioning was assessed as described in B. Gong, O. V. Vitolo, F. Trinchese, S. Liu, M. Shelanski, O. Arancio, Persistent improvement in synaptic and cognitive functions in an Alzheimer mouse model after rolipram treatment, J. Clin. Invest. 114 (2004) 1624-1634; F. Trinchese, S. Liu, F. Battaglia, S. Walter, P. M. Mathews, O. Arancio, Progressive age-related development of Alzheimer-like pathology in APP/PS1 mice, Ann. Neurol. 55 (2004) 801-814; and B. Gong, Z. Cao, P. Zheng, O. V. Vitolo, S. Liu, A. Staniszewski, D. Moolman, H. Zhang, M. Shelanski, O. Arancio, Ubiquitin hydrolase Uch-L1 rescues beta-amyloid-induced decreases in synaptic function and contextual memory, Cell 126 (2006) 775-788; each herein incorporated by reference in its entirety. […] Freezing behavior, defined as the absence of movements except for respiratory excursions, was scored using Freezeview software (Med Associates, St. Albans, Vt.). Contextual fear learning was evaluated 24 hrs after training by measuring freezing responses for 5 min in the same chamber where the mice were trained. Cued fear learning was evaluated 24 hrs after contextual testing. The mice were placed in a novel context for 2 min (pre-CS test), after which they were given a CS for 3 min (CS test), and freezing behavior was measured during the first 30 sec that mimic the CS-US conditioning and the remaining 2.5 min. […]

[4] = system: LTP in hippocampal slices of APP/PS1 mice; assay: Long-term potentiation in hippocampal slices, compound through the bath perfusion; details: 50 nM bath perfusion
[5] = system: LTP in hippocampal slices of APP/PS1 mice; assay: Long-term potentiation in slices after 3 weeks daily i.p. treatment and 9-12 weeks without treatment; format: in vivo; details: 3 mg/kg/day i.p. for 3 weeks from 3 months of age, treatment stopped 9-12 weeks prior to testing
Procedure: Transverse hippocampal slices (400 μm) were cut with a tissue chopper (EMS, PA) and maintained in an interface chamber at 29° C. for 90 min prior to recording, as described in Vitolo et al, Proc. Natl. Acad. Sci. USA 2002, 13217-13221, herein incorporated by reference in its entirety. The extracellular bath solution consisted of 124.0 mM NaCl, 4.4 mM KCl, 1.0 mM Na2HPO4, 25.0 mM NaHCO3, 2.0 mM CaCl2, 2.0 mM MgSO4, and 10.0 mM glucose, continuously aerated with 95% O2/5% CO2 to a final pH of 7.4. Field extracellular postsynaptic responses (fEPSPs) were recorded by placing the stimulating and recording electrodes in CA1 stratum radiatum. […] Basal synaptic transmission was first assessed by plotting the stimulus voltages (V) against slopes of fEPSP to generate input-output relations. A 20-30 min baseline was first recorded every minute at an intensity that evoked a response at approximately 35% of the maximum evoked response. […] Responses were measured as fEPSP slopes expressed as percentage of baseline.
Slices from transgenic mice treated with the compound had 226.23%±6.72 potentiation compared to 164.12%±10.37 in slices from vehicle-treated transgenic mice (FIG. 3). Residual potentiation recorded during the last 5 minutes of a 2 hr recording following tetanic stimulation of the Schaffer collateral fibers at the CA3-CA1 connection.

[6] = system: APP/PS1 mice; assay: 2-day radial arm water maze (reference memory); format: in vivo
Procedure: The radial arm water maze task, a hybrid of the classic Morris Water Maze and the radial arm land maze, was performed as described in J. Alamed, D. M. Wilcock, D. M. Diamond, M. N. Gordon, D. Morgan, Two-day radial-arm water maze learning and memory task; robust resolution of amyloid-related memory deficits in transgenic mice, Nat. Prot. 1 (2006) 1671-1679, herein incorporated by reference in its entirety. The mouse had to swim in 6 alleys (arms) radiating from a central area until it found a hidden (submerged) platform at the end of one of the arms, based on visual cues placed in the room. The first day of the protocol was a training day on which mice were trained to identify the platform location by alternating between a visible and a hidden platform in a goal arm. The final 3 trials on that day and all 15 trials on day 2 used a hidden escape platform to force mice to use spatial cues to identify the location of the goal arm. […] The number of incorrect arm entries (entries to arms with no platform) was counted. […] Failure to select an arm after 15 sec was counted as an error and the mouse was returned to the start arm. […] For data analysis, averages for each mouse were calculated using blocks of 3 trials. […]

[7] = Metabolite formation (H versus D substitution); format: in vitro ADME; details: substitution of H with D; instead of three
[8] = system: APP/PS1 mice; assay: Preliminary studies with sildenafil in APP/PS1 mice; format: in vivo; details: persist beyond the administration of the inhibitor
[9] = 3-4 month old APP/PS1 mice, 3 mg/kg i.p. for 3 weeks
[10] = APP/PS1 mice, 3 mg/kg/day i.p. for 3 weeks at 3-4 months, treatment stopped 9-12 weeks, examined at 6-7 months

COc1ccc(CNc2c3c(nc4ccc(C#N)cc24)CCN(C(C)=O)C3)cc1Cl [Compound H, 2-acetyl-10-[(3-chloro-4-methoxybenzyl)amino]-1,2,3,4-tetrahydrobenzo[b][1,6]naphthyridine-8-carbonitrile]
t½ (elimination half-life) ([1]; Brain): 39 min | t½ (elimination half-life) ([1]; Plasma): 64.2 min | Cmax ([1]; male, C57B16, mouse, ip, Brain): 492 ng/g | half-life ([1]; male, C57B16, mouse, ip, Brain): 39 min | half-life ([1]; male, C57B16, mouse, ip, Plasma): 64.2 min | brain sections, CD45 immunostain [2]: no signs of inflammation | brain sections, GFAP immunostain [2]: no signs of gliosis | brain sections, H&E [2]: did not show any signs of toxicity | brain sections, LFB-PAS stain [2]: no signs of demyelination | kidney sections, H&E staining [2]: no toxicity | kidney sections, PAS staining [2]: did not show any abnormalities in the glomerular basement membrane | kidney sections, trichrome staining [2]: no fibrosis | liver sections, H&E staining [2]: did not show any signs of toxicity | liver sections, trichrome stain [2]: no fibrosis or cirrhotic liver disease | muscle sections, H&E [2]: no signs of toxicity | muscle sections, trichrome stain [2]: no muscle fibrosis | neurotoxicity in the brain [2]: no signs of neurotoxicity | freezing, contextual fear memory 24 hrs after shock [3, 9]: ~30% | freezing, contextual memory [3, 10]: ~40% | effect on potentiation in WT slices [4]: no effect | residual potentiation (fEPSP slope, percentage of baseline) [5]: 226.23%±6.72 | errors in the last trial of the 2-day RAWM test [6, 9]: 1 to 2 errors | errors in the 2-day RAWM test [6, 10]: ~1 error

[2H]C([2H])(Nc1c2c(nc3ccc(C#N)cc13)CCN(C(C)=O)C2)c1ccc(OC)c(Cl)c1 [U]
number of metabolites formed [7]: 1

CCCc1nn(C)c2c(=O)[nH]c(-c3cc(S(=O)(=O)N4CCN(C)CC4)ccc3OCC)nc12 [sildenafil]
effects on synaptic and cognitive abnormalities [8]: prolonged beneficial effects
